pIC50: −log10 of the molar value.
biological target: T1, LPA1 (Homo sapiens, UniProt Q92633); test: LPA1 calcium flux assay (LPA1 functional antagonist assay); format: cell-based; conditions: PathHunter CHO-K1 EDG2 β-Arrestin cell line; calcium indicator dye; stimulated with EC80 concentration of LPA; FLIPR Tetra
T1 construct: ProLink (PK) beta-galactosidase enzyme-fragment tag; host or cells: CHO-K1
Procedure, shortened: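 The LPA1 antagonist readout was intracellular calcium flux, and IC50 values were calculated from it. Plates stood 30 min at RT after compound addition. Cells, grown overnight, had first taken up calcium dye over 45 min at 37 °C.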

T1 sequence (Q92633 whole entry, the tested form may be a part): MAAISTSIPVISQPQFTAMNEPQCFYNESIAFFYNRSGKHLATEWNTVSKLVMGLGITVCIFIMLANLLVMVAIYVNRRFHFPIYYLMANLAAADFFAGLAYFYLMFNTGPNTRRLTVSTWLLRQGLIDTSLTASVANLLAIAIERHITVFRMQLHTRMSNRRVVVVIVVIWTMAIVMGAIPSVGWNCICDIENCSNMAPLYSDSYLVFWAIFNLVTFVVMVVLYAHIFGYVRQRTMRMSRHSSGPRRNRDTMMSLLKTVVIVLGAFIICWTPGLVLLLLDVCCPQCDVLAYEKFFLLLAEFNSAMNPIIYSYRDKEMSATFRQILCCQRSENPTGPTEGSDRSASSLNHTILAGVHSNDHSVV

| SMILES | pIC50 |
| --- | --- |
| CCC(C)n1ccn(Cc2c(-c3ccc(N4C[C@@H](CC(=O)O)CC(F)(F)C4)c(C)n3)nnn2C)c1=O (stereo partly drawn) [Example 73, 2-((3S)-1-(6-(5-((3-(sec-butyl)-2-oxo-2,3-dihydro-1H-imidazol-1-yl)methyl)-1-methyl-1H-1,2,3-triazol-4-yl)-2-methylpyridin-3-yl)-5,5-difluoropiperidin-3-yl)acetic acid] | < 5.30 |
| CCc1nc(-c2nnn(C)c2COc2cn(CC(C)C)nn2)ccc1N1C[C@@H](CC(=O)O)CC(F)(F)C1 [Example 128, (S)-2-(1-(2-ethyl-6-(5-(((1-isobutyl-1H-1,2,3-triazol-4-yl)oxy)methyl)-1-methyl-1H-1,2,3-triazol-4-yl)pyridin-3-yl)-5,5-difluoropiperidin-3-yl)acetic acid] | 6.30 to 7.00 |
| CCc1nc(-c2nnn(C)c2Cn2cc(CC(C)C)n(C)c2=O)ccc1N1C[C@H](CC(=O)O)CC(F)(F)C1 (stereo in doubt) [Example 66, 2-[(3R)-1-[2-ethyl-6-(1-methyl-5-{[3-methyl-4-(2-methylpropyl)-2-oxo-2,3-dihydro-1H-imidazol-1-yl]methyl}-1H-1,2,3-triazol-4-yl)pyridin-3-yl]-5,5-difluoropiperidin-3-yl]acetic acid] | > 7.00 |
| CCc1nc(-c2nnn(C)c2Cn2cc(-n3cccn3)ccc2=O)ccc1N1C[C@@H](CC(=O)O)CC(F)(F)C1 [Example 28, (S)-2-(1-(2-ethyl-6-(1-methyl-5-((2-oxo-5-(1H-pyrazol-1-yl)pyridin-1 (2H)-y)methyl)-1H-1,2,3-triazol-4-yl)pyridin-3-yl)-5,5-difluoropiperidin-3-yl)acetic acid] | 5.30 to 6.30 |
| CCCN(C)C(=O)OCc1c(-c2ccc(N3C[C@@H](CC(=O)O)CC(F)(F)C3)c(CC)n2)nnn1C [Example 146, (S)-2-(1-(2-ethyl-6-(1-methyl-5-(((methyl(propyl)carbamoyl)oxy)methyl)-1H-1,2,3-triazol-4-yl)pyridin-3-yl)-5,5-difluoropiperidin-3-yl)acetic acid] | < 5.30 |
| CCCc1cnn(Cc2c(-c3ccc(CN4CC(C(=O)O)CC(F)(F)C4)c(C)n3)nnn2C)c(=O)c1 (single isomer, unassigned) [Example 158, (S) or (R)-5,5-difluoro-1-((2-methyl-6-(1-methyl-5-((6-oxo-4-propylpyridazin-1(6H)-yl)methyl)-1H-1,2,3-triazol-4-yl)pyridin-3-yl)methyl)piperidine-3-carboxylic acid] | < 5.30 |
| CCc1nc(-c2nnn(C)c2Cn2nc(CC3CC3)ccc2=O)ccc1N1C[C@@H](CC(=O)O)CC(F)(F)C1 [Example 35, (S)-2-(1-(6-(5-((3-(cyclopropyImethyl)-6-oxopyridazin-1(6H)-yl)methyl)-1-methyl-1H-1,2,3-triazol-4-yl)-2-ethylpyridin-3-yl)-5,5-difluoropiperidin-3-yl)acetic acid] | 6.30 to 7.00 |
| CCCc1cn(Cc2c(-c3ccc(N4C[C@@H](CC(=O)O)CC(F)(F)C4)c(C)n3)nnn2C)ccc1=O (stereo in doubt) [Example 43, (S)-2-(5,5-difluoro-1-(2-methyl-6-(1-methyl-5-((4-oxo-3-propylpyridin-1(4H)-yl)methyl)-1H-1,2,3-triazol-4-yl)pyridin-3-yl)piperidin-3-yl)acetic acid] | < 5.30 |
| Cc1nc(-c2nnn(C)c2COc2nccc(C3CCC3)n2)ccc1CN1CC(C(=O)O)CC(F)(F)C1 (single isomer, unassigned) [Example 148, (R) or (S)-1-((6-(5-(((4-cyclobutylpyrimidin-2-yl)oxy)methyl)-1-methyl-1H-1,2,3-triazol-4-yl)-2-methylpyridin-3-yl)methyl)-5,5-difluoropiperidine-3-carboxylic acid] | > 7.00 |
| CCCn1cc(OCc2c(-c3ccc(N4C[C@@H](CC(=O)O)CC(F)(F)C4)c(CC)n3)nnn2C)c(=O)cn1 [Example 109, (S)-2-(1-(2-ethyl-6-(1-methyl-5-(((5-oxo-2-propyl-2,5-dihydropyridazin-4-yl)oxy)methyl)-1H-1,2,3-triazol-4-yl)pyridin-3-yl)-5,5-difluoropiperidin-3-yl)acetic acid] | 5.30 to 6.30 |
| CCCc1ccc(=O)n(Cc2c(-c3ccc(N4C[C@@H](CC(=O)O)CC(F)(F)C4)c(C#N)n3)nnn2C)c1 [Example 49, (S)-2-(1-(2-cyano-6-(1-methyl-5-((2-oxo-5-propylpyridin-1(2H)-yl)methyl)-1H-1,2,3-triazol-4-yl)pyridin-3-yl)-5,5-difluoropiperidin-3-yl)acetic acid] | < 5.30 |
| CCc1nc(-c2nnn(C)c2COc2nccc(C3CCC3)n2)ccc1N1CC(CC(=O)O)CCC1=O (single isomer, unassigned) [Example 91, (R) or (S)-2-(1-(6-(5-(((4-cyclobutylpyrimidin-2-yl)oxy)methyl)-1-methyl-1H-1,2,3-triazol-4-yl)-2-ethylpyridin-3-yl)-6-oxopiperidin-3-yl)acetic acid] | < 5.30 |
| CCCc1ccc(=O)n(Cc2c(-c3ccc(N4C[C@@H](F)C[C@H](CC(=O)O)C4)c(CC)n3)nnn2C)c1 (single isomer, unassigned) [Example 45, 2-((3S,5S) or (3R,5R)-1-(2-ethyl-6-(1-methyl-5-((2-oxo-5-propylpyridin-1(2H)-yl)methyl)-1H-1,2,3-triazol-4-yl)pyridin-3-yl)-5-fluoropiperidin-3-yl)acetic acid] | 6.30 to 7.00 |
| CCc1nc(-c2nnn(C)c2Cn2cc(C3CC3)c(C)cc2=O)ccc1N1C[C@@H](CC(=O)O)CC(F)(F)C1 [Example 18] | 5.30 to 6.30 |
| CCCn1nc(OCc2c(-c3ccc(N4C[C@@H](CC(=O)O)CC(F)(F)C4)c(C)n3)nnn2C)ccc1=O [Example 108, (S)-2-(5,5-difluoro-1-(2-methyl-6-(1-methyl-5-(((6-oxo-1-propyl-1,6 dihydropyridazin-3-yl)oxy)methyl)-1H-1,2,3-triazol-4-yl)pyridin-3-yl)piperidin-3-yl)acetic acid] | 5.30 to 6.30 |
| CCCc1ccc(=O)n(Cc2c(-c3ccc(N4CCC[C@H](CC(=O)O)C4)c(C(F)(F)F)n3)nnn2C)c1 [Example 58, 2-[(3R)-1-(6-{1-methyl-5-[(2-oxo-5-propyl-1,2-dihydropyridin-1-yl)methyl]-1H-1,2,3-triazol-4-yl}-2-(trifluoromethyl)pyridin-3-yl)piperidin-3-yl]acetic acid] | > 7.00 |
| CCc1nc(-c2nnn(C)c2Cn2ccc(C#CC3CC3)cc2=O)ccc1N1C[C@@H](CC(=O)O)CC(F)(F)C1 [Example 20, (S)-2-(1-(6-(5-((4-(cyclopropylethynyl)-2-oxopyridin-1(2H)-yl)methyl)-1-methyl-1H-1,2,3-triazol-4-yl)-2-ethylpyridin-3-yl)-5,5-difluoropiperidin-3-yl)acetic acid] | < 5.30 |
| CCCc1ccc(=O)n(Cc2c(-c3ccc(CN4CC(C(=O)O)CC(F)(F)C4)c(C)n3)nnn2C)c1 (single isomer, unassigned) [Example 157, (R) or (S)-5,5-difluoro-1-((2-methyl-6-(1-methyl-5-((2-oxo-5-propylpyridin-1(2H)-yl)methyl)-1H-1,2,3-triazol-4-yl)pyridin-3-yl)methyl)piperidine-3-carboxylic acid] | 5.30 to 6.30 |
| CCc1nc(-c2nnn(C)c2Cn2cc(C3CC3)ccc2=O)ccc1N1C[C@@H](CC(=O)O)CC(F)(F)C1 [Example 15, (S)-2-(1-(6-(5-((5-cyclopropyl-2-oxopyridin-1(2H)-yl)methyl)-1-methyl-1H-1,2,3-triazol-4-yl)-2-ethylpyridin-3-yl)-5,5-difluoropiperidin-3-yl)acetic acid] | > 7.00 |
| Cc1nc(-c2nnn(C)c2COc2cc(-n3nccn3)ccn2)ccc1N1CCC[C@H](CC(=O)O)C1 [Example 104, (R)-2-(1-(6-(5-(((4-(2H-1,2,3-triazol-2-yl)pyridin-2-yl)oxy)methyl)-1-methyl-1H-1,2,3-triazol-4-yl)-2-methylpyridin-3-yl)piperidin-3-yl)acetic acid] | > 7.00 |
| CCc1nc(-c2nnn(C)c2COc2noc(C3CC3)n2)ccc1N1CC(CC(=O)O)CC(F)(F)C1 (stereo in doubt) [Example 114, (R)-2-(1-(6-(5-(((5-cyclopropyl-1,2,4-oxadiazol-3-yl)oxy)methyl)-1-methyl-1H-1,2,3-triazol-4-yl)-2-ethylpyridin-3-yl)-5,5-difluoropiperidin-3-yl)acetic acid] | < 5.30 |
| CCc1nc(-c2nnn(C)c2COC(=O)N(C)C2CCC2)ccc1N1C[C@@H](CC(=O)O)CC(F)(F)C1 [Example 143, (S)-2-(1-(6-(5-(((cyclobutyl(methyl)carbamoyl)oxy)methyl)-1-methyl-1H-1,2,3-triazol-4-yl)-2-ethylpyridin-3-yl)-5,5-difluoropiperidin-3-yl)acetic acid] | > 7.00 |
| CCc1nc(-c2nnn(C)c2CN2C[C@H](CC3CC3)OC2=O)ccc1N1C[C@H](CC(=O)O)CC(F)(F)C1 (stereo in doubt) [Example 69, 2-((R)-1-(6-(5-(((S)-5-(cyclopropylmethyl)-2-oxooxazolidin-3-yl)methyl)-1-methyl-1H-1,2,3-triazol-4-yl)-2-ethylpyridin-3-yl)-5,5-difluoropiperidin-3-yl)acetic acid] | 5.30 to 6.30 |
| CCCc1ccc(=O)n(Cc2c(-c3ccc(N4CCCC(CC(=O)O)C4=O)c(CC)n3)nnn2C)c1 (single isomer, unassigned) [Example 53, (S) or (R)-2-(1-(2-ethyl-6-(1-methyl-5-((2-oxo-5-propylpyridin-1(2H)-yl)methyl)-1H-1,2,3-triazol-4-yl)pyridin-3-yl)-2-oxopiperidin-3-yl)acetic acid] | < 5.30 |
| Cc1nc(-c2nnn(C)c2COc2cc(-n3cccn3)ncn2)ccc1N1CCC[C@H](CC(=O)O)C1 [Example 85, (R)-2-(1-(6-(5-(((6-(1H-pyrazol-1-yl)pyrimidin-4-yl)oxy)methyl)-1-methyl-1H-1,2,3-triazol-4-yl)-2-methylpyridin-3-yl)piperidin-3-yl)acetic acid] | > 7.00 |

From patent publication US12780800B1, “Triazole-pyridinyl substituted azacyclohexyl acetic acid compounds as LPA receptor antagonists” (Viva Star Biosciences Limited, priority 2021, dated 2022)
